Converted amounts (≈) assume the structure as drawn.
Assays:
[1] = DPPH radical scavenging; conditions: mean ± SE, n = 3
Procedure: The 1,1-Diphenyl-2-picryl-hydrazyl (DPPH) radical scavenging activities were evaluated using the method described by Rahman et al. An antioxidant substance capable of donating a hydrogen atom to a solution containing DPPH- can reduce the stable free radical, causing the solution to change color from violet to pale yellow.
The remaining DPPH- radical was quantified by measuring the intensity of a light-purple colored DPPH methanol solution in the visible range at 518 nm using a spectroscopic method. Two mill iliters of a DPPH solution (100 µ M) in ethanol were mixed with 2 mL of the sample (at each concentration). The reaction mixture for each concentration was thoroughly vortexed and then incubated in the dark at room temperature for 30 minutes. The absorbance was then measured spectrophotometrically at 518 nm against a blank (ethanol). For the control, 2 mL of ethanol was added instead of the sample and run simultaneously with the test.
Ascorbic acid was used at the same concentrations as a positive control. P ercent […]
inhibition of the DPPH free radical was calculated. […]

[2] = NO radical scavenging; conditions: mean ± SE, n = 3
Procedure: The in vitro biological applications of the SB and SB-CuO-NPs, including antioxidant, scavenging, anti-diabetic, anti-Alzheimer, anti-arthritic, anti-inflammatory, cytotoxic effects, and enzyme inhibition, were assessed using methods described in the literature (See Supplementary Materials).
During the current study, the free radical scavenging capacity of SB-CuO-NPs, SB, and ascorbic acid (positive control) was evaluated using the DPPH, ABTS, and NO radical methods. The scavenging activity is used to predict antioxidant efficacy, a mechanism in which antioxidants inhibit lipid oxidation. The lower IC50 value indicates a stronger ability of the SB-CuO-NPs to act as radical scavengers, whereas the higher IC50 value indicates a lower scavenging activity. […] The lower the IC50 value, the greater the antioxidant activity.

[3] = biological target: T1, 5-LOX enzyme (human recombinant) (Homo sapiens, UniProt P09917); assay: 5-Lipoxygenase inhibition assay; type: biochemical; conditions: mean ± SE, n = 3
T1 construct: purchased Sigma-Aldrich 437996
T1 sequence (P09917 1-674): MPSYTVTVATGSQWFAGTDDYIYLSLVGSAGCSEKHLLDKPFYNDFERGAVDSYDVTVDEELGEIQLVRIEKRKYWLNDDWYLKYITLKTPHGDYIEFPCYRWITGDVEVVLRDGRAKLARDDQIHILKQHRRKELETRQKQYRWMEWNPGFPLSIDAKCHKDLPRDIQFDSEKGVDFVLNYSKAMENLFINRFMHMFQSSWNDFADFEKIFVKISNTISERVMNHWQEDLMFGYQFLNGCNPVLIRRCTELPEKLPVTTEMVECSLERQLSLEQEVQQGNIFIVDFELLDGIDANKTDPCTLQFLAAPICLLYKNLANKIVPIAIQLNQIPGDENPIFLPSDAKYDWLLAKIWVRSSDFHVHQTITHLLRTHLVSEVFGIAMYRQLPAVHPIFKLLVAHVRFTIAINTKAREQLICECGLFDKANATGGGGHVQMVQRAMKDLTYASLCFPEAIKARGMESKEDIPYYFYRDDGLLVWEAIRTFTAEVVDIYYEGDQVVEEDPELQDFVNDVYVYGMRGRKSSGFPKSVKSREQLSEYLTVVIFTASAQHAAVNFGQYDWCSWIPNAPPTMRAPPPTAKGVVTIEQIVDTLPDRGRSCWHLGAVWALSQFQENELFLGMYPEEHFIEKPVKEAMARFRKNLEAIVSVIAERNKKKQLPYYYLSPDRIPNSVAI

[4] = test system: caspase-3 in HepG-2 cells; assay: Caspase-3 ELISA in treated HepG-2 cells; type: cell-based, human; conditions: HepG-2 cells treated at the IC50 value, mean ± SE, n = 3
Procedure: (§1) Following the treatment of HepG-2, Caco-2, A549, and BJ-1 cells with the SB-CuO-NPs at their respective IC50 values, as illustrated in Figure 9 and detailed in Table 5, an assessment of the activities of the caspase-3 and Bcl-2 enzymes was conducted in the treated cells. […] This mechanism ultimately triggers apoptosis. Additionally, the increased activity of caspase-3 results in a decrease in the expression of cyclin D1 and CDK-2 mRNA, thereby promoting the arrest of the G1 phase of the cell cycle. Othman et al. further noted that the biosynthesized M-NPs facilitate apoptosis by inhibiting the expression of the PI3K/AKT and Ras/Raf/ERK protein signaling pathways.
(§2) Invitrogen Corporation, following the manufacturer's instructions.

[5] = test system: Bcl-2 in HepG-2 cells; assay: Bcl-2 ELISA in treated HepG-2 cells; type: cell-based, human; conditions: HepG-2 cells treated at the IC50 value, mean ± SE, n = 3
Procedure: as §1, §2

[6] = test system: caspase-3 in Caco-2 cells; assay: Caspase-3 ELISA in treated Caco-2 cells; type: cell-based, human; conditions: Caco-2 cells treated at the IC50 value, mean ± SE, n = 3
Procedure: as §1, §2

[7] = test system: caspase-3 in A549 cells; assay: Caspase-3 ELISA in treated A549 cells; type: cell-based, human; conditions: A549 cells treated at the IC50 value, mean ± SE, n = 3
Procedure: as §1, §2

[8] = test system: Bcl-2 in A549 cells; assay: Bcl-2 ELISA in treated A549 cells; type: cell-based, human; conditions: A549 cells treated at the IC50 value, mean ± SE, n = 3
Procedure: as §1, §2

[9] = test system: Bcl-2 in BJ-1 cells; assay: Bcl-2 ELISA in treated BJ-1 cells; type: cell-based, human; conditions: BJ-1 cells treated at the IC50 value, mean ± SE, n = 3
Procedure: as §1, §2

[10] = test system: human lung cancer (A549) cell line; assay: MTT cytotoxicity, A549
[11] = MTT cytotoxicity, BJ-1; conditions: human, BJ-1 normal fibroblast cells
[12] = test system: normal human fibroblast (BJ-1) cell line; assay: MTT cytotoxicity, BJ-1; conditions: Homo sapiens, Fibroblast, 48 h, read-out: Median Inhibitory Concentration (IC50) BJ-1
[13] = test system: human hepatocellular carcinoma (HepG-2) cell line; assay: MTT cytotoxicity, HepG-2

Cc1nn(-c2ccccc2)c(Cl)c1C=NN=C1C(=O)Nc2ccccc21 [SB]
Scavenging activity DPPH Inhib. (%) ([1]; at 100 µg/mL): 44.54 ± 0.18%
Scavenging activity DPPH IC50 [1]: 6.24 ± 0.01 µg/mL
Scavenging activity NO Inhib. (%) ([2]; at 100 µg/mL): 36.79 ± 0.18%
Scavenging activity NO IC50 [2]: 7.69 ± 0.04 µg/mL
inhibition at 100 µg/mL ([3]; at 100 µg/mL, read-out: 5-LOX Inhib. (%)): 26.71 ± 0.18%
IC50 [3]: 36.6 µM
Caspase-3 [4]: 165.55 ± 1.29 pg/mL
Bcl-2 [5]: 7.32 ± 0.10 ng/mL
Caspase-3 [6]: 144.28 ± 0.22 pg/mL
Caspase-3 [7]: 134.94 ± 0.18 pg/mL
Bcl-2 [8]: 8.26 ± 0.03 ng/mL
Bcl-2 [9]: 4.98 ± 0.03 ng/mL
viability at 31.13 µg/mL ([10]; A549): 86.2%
viability at 62.5 µg/mL ([10]; A549): 70.3%
viability at 125 µg/mL ([10]; A549): 44.8%
viability at 250 µg/mL ([10]; A549): 38.5%
viability at 500 µg/mL ([10]; A549): 18.8%
IC50 ([10]; A549, 48 h, read-out: Median Inhibitory Concentration (IC50) A549): 110 ± 2.49 µg/mL (≈ 303 µM)
viability at 48 h, 31.13 μg/mL [11]: 90.9%
viability at 48 h, 62.5 μg/mL [11]: 80.9%
viability at 48 h, 125 μg/mL [11]: 62.7%
viability at 48 h, 250 μg/mL [11]: 47.2%
viability at 48 h, 500 μg/mL [11]: 19.1%
IC50 [12]: 168 ± 2.22 µg/mL (≈ 461 µM)
viability at 31.13 µg/mL ([13]; HepG2): 87.6%
viability at 62.5 µg/mL ([13]; HepG2): 74.6%
viability at 125 µg/mL ([13]; HepG2): 53.1%
viability at 250 µg/mL ([13]; HepG2): 40.2%
viability at 500 µg/mL ([13]; HepG2): 19.3%
IC50 ([13]; HepG2, 48 h, read-out: Median Inhibitory Concentration (IC50) HepG-2): 127 ± 3.13 µg/mL (≈ 350 µM)
